# Test results as given in patent publication US20070055448A1, “Primary rat hepatocyte toxicity modeling” (Gene Logic Inc., priority 2003, published 2007).
# How the values were obtained:
# [1] = dogs, after treatment; cited from earlier work
# [2] = AY-25329 repeated-dose rat study: serum chemistry and light microscopy; assay type: in vivo, rats
# Source text: The present inventors have noted indications of liver and renal effects of AY-25329 by changes in serum chemistry. […] Most of these markers of renal and liver dysfunction remained altered throughout the 14 day study period.
# [3] = 0.1, 1, 2, 3, 4 mL/kg ip; 2.5 mL/kg po; peak within 48 hours post dose; cited from earlier work
# [4] = 180 reported cases; cited from earlier work
# [5] = human, in vivo; cited from earlier work
# [6] = oral doses; cited from earlier work
# [7] = Lovastatin rat dosing study: liver tissue examination; assay type: in vivo, rats
compound,measurement,setting,value
"Cl.Nc1nc2c(Cc3ccsc3)c[nH]c2c(=O)[nH]1.O [CI-1000, 4H-pyrrolo:3,2-d:pyrimidin-4-one, 2-amino-3,5-dihydro-7-(3-thienylmethyl)-monohydrochloride monohydrate]",serum ALT levels,[1],increased serum ALT levels
O=C(CCN1CCN2CCCC2C1)N1c2ccccc2Sc2ccc(Cl)cc21 (stereo not shown) [AY-25329],histopathology of kidney and liver,"[2]; 14 days of repeated dosing, 250 mg/kg/day",nephrosis and alterations in the peripheral lobes of the liver and in the cytoplasm of hepatocytes were evident
same,light microscopic analysis of the liver,[2]; as early as 6 and 24 hours,increased number of hepatocytic mitotic figures and decreased glycogen content
same,"serum levels of creatinine, BUN, ALT, triglycerides and cholesterol","[2]; as early as 6 hours after the first dose, most markers remained altered throughout the 14 day study period",statistically significant increases
"ClC(Cl)(Cl)Cl [CCl4, carbon tetrachloride]",peak increase of ALT and AST levels,[3],5-10 fold
O=C(O)Cc1ccccc1Nc1c(Cl)cccc1Cl [diclofenac],jaundice among symptomatic patients,[4],75 % of the symptomatic patients
"CCCC(CCC)C(=O)O [valproate, n-dipropylacetic acid]",patients with elevated levels of hepatic enzymes,[5],about 40 % of patients
CC[C@H](C)C(=O)O[C@H]1C[C@@H](C)C=C2C=C[C@H](C)[C@H](CC[C@@H]3C[C@@H](O)CC(=O)O3)[C@H]21 [lovastatin],metabolites excreted in the urine,[6],less than 13%
same,effects in liver tissue,"[7]; 9 or 90 mg/kg twice a day, after 6 or after 24 hours",no effects were noted
same,liver cell changes,[7]; after 14 days of treatment at the higher dosage (90 mg/kg twice a day),abnormal vacuolization of the cytoplasm
